Test results reported in paper PMC9119314 (Frontiers in Pharmacology, 2022).

Tests used:
P. falciparum 3D7 = experiment: In vitro antiplasmodial activity, P. falciparum 3D7 (SYBR Green I); type: cell-based; settings: Plasmodium falciparum; chloroquine-sensitive strain 3D7, 48 h; read-out: Activity against P. falciparum 3D7, IC50
Description: (§1) P. falciparum (3D7 clone) and P. knowlesi (A1-H.1 clone) were maintained in culture in RPMI 1640 supplemented with 25 mM HEPES, 25 mM NaHCO3, 10 mM D-glucose, 2 mM L-glutamine, 50 mg/L hypoxanthine, 25 mg/L gentamicin sulfate, 5 g/L Albumax II, and 10% (v/v) equine serum (Thermo Fisher Scientific, 26-050-088). The P. falciparum (3D7) and P. knowlesi (A1-H.1) parasites were grown in human A^+ red blood cells (National Health Blood and Transplant, United Kingdom). The parasites were incubated in sealed flasks at 37°C under a culture gas mixture of 96% N2, 3% CO2, and 1% O2. ([van Schalkwyk et al., 2019]). The compounds were initially dissolved in DMSO prior to diluting in RPMI. All experiments were initiated using unsynchronized parasites with both the parasitemia and hematocrit set to 1%. Drug susceptibility assays were set up in 96-well, flat-bottom microplates in a final volume of 200 μL, as described previously ([van Schalkwyk et al., 2017]). The controls were included for the background fluorescence (0% viability; parasites exposed to a supralethal 10 μM chloroquine concentration) and 100% growth (parasites in drug-free wells). The plates were incubated for one complete life cycle (27 h for P. knowlesi or 48 h for P. falciparum in vitro) at 37°C in a modular incubation chamber (Billups-Rothenburg Inc.) under the culture gas. Upon termination of the assay, the plates were stored at −20°C overnight. The SYBR Green I fluorescent method was used to measure parasite survival ([Bennett et al., 2004]; [Smilkstein et al., 2004]). After the microplates were thawed, 100 μL from each well was transferred into a duplicate plate. To this was added 100 μL of SYBR green solution [SYBR Green I (Thermo Fisher Scientific, S7563), diluted 1:5000 in a lysis buffer made of 20 mM Tris, 5 mM EDTA, 0.008% (w/v) saponin, 0.08% (v/v) Triton X-100, pH 7.5]. The plates were stored in the dark for 1 h before fluorescence was read at a 490 nm excitation wavelength and a 520 nm emission wavelength on a Spectramax M3 microplate reader (Molecular Devices) ([van Schalkwyk et al., 2017]). The background fluorescence (wells with parasites at 0% viability) was subtracted from all drug assay wells, and the parasite proliferation was determined as a percentage of the fluorescence in the drug-free control wells.

[1] = system: P. falciparum gametocytes; parameters: method as in Forkuo et al., 2017; settings: ref Forkuo et al., 2017; read-out: IC50 against gametocytes, previous data; cited from earlier work
P. knowlesi A1-H.1 = experiment: In vitro antiplasmodial activity, P. knowlesi A1-H.1 (SYBR Green I); type: cell-based, Plasmodium knowlesi; settings: Plasmodium knowlesi, 27 h, read-out: Activity against P. knowlesi A1-H.1, IC50, 27 h, ± SD
Description: as §1

[2] = system: T. brucei bloodstream forms (strain 427, derivative 221); settings: ref Oluwafemi et al. 2009; read-out: Activity against T. brucei IC50; cited from earlier work
A2780/cis cells = experiment: Chemosensitivity MTT assay, cisplatin-resistant A2780/CIS; type: cell-based, human; settings: Homo sapiens, A2780cis, 96 h, ± SE, read-out: Activity against A2780/cis cells, IC50
Description: (§2) The chemosensitivity of compounds 3–6 was assessed in the wild-type immortalized human ovarian adenocarcinoma cell line A2780 and its daughter cell lines, which are resistant to the standard cancer chemotherapeutics doxorubicin (A2780/ADR) and cisplatin (A2780/CIS, all cell lines from ECACC, Salisbury, United Kingdom). A modified MTT assay was used ([Shnyder et al., 2008]). Cells (2 × 10^4/ml) were inoculated into each well of a 96-well plate and incubated for 24 h at 37°C in a humidified atmosphere containing 5% CO2. Compounds were then added at a range of concentrations to each well, and the plates were then incubated for a further 96 h. After 96 h, the culture medium was removed and 200 μL of 0.5 mg ml^–1 MTT solution (Sigma) in the complete medium was added to each well. Following a further 4 h incubation, the solution was removed from each well and 150 μL of DMSO was added to solubilize the formazan crystals resulting from MTT conversion. The absorbance values for the resulting solutions were read at 540 nm on an Azure 96-well microplate reader (Azure Biosynstems Inc.), and the cell survival was calculated as the absorbance of treated cells divided by the control.

A2780/WT cells = experiment: Chemosensitivity MTT assay, A2780 wild type; type: cell-based, human; settings: Homo sapiens, A2780, 96 h, ± SE, read-out: Activity against A2780/WT cells, IC50
Description: as §2

A2780/ADR cells = experiment: Chemosensitivity MTT assay, doxorubicin-resistant A2780/ADR; type: cell-based; settings: Homo sapiens, 96 h, ± SE, read-out: Activity against A2780/ADR cells, IC50
Description: as §2, with “A” for “The chemosensitivity of compounds 3–6 was assessed in the wild-type immortalized human ovarian adenocarcinoma cell line A2780 and its daughter cell lines, which are resistant to the standard cancer chemotherapeutics doxorubicin (A2780/ADR) and cisplatin (A2780/CIS, all cell lines from ECACC, Salisbury, United Kingdom). A”

P. berghei = P. berghei in mice, oral, 50 mg/kg/day; ref Wright et al., 1996; cited from earlier work
[3] = system: P. falciparum (NF54-Mal8p1.16-GFP-Luc) late-stage gametocytes; experiment: microbe, parasite or virus in culture; type: cell-based, Plasmodium falciparum; settings: Plasmodium falciparum, NF54, 48 h, read-out: Activity against late-stage gametocytes IC50
Description: Gametocytes were produced as per [Reader et al. (2015]; [2021)] from P. falciparum NF54-Mal8p1.16-GFP-Luc ([Adjalley et al., 2011]), and each batch was validated for viability and functionality before use. […] Drug assays were set up on day 10 (representing late gametocytes, >90% stage IV/V gametocytes) using a 2–3% gametocytemia, 1.5% hematocrit culture. The drug pressure was for 48 h under stationary, hypoxic conditions (90% N2, 5% O2, and 5% CO2) at 37°C. Luciferase activity was determined in 30 μL parasite lysates by adding 30 μL luciferin substrate (Promega Luciferase Assay System) at room temperature and detection of resultant bioluminescence at an integration constant of 10 s with the GloMax®-Multi + Detection System with Instinct® Software. Methylene blue (5 μM) and an internal control (MMV390048, 5 μM) were routinely included as controls.

P. falciparum K1 = experiment: In vitro antiplasmodial activity, P. falciparum K1 (lactate dehydrogenase assay); type: cell-based, Plasmodium falciparum; settings: Plasmodium falciparum; chloroquine-resistant strain K1, 48 h, mean ± SE; read-out: Activity against P. falciparum K1, IC50
Description: P. falciparum (K1 clone) was maintained in human erythrocytes prepared from the donated blood samples (blood groups unknown, Ethical Tissue, University of Bradford), suspended in the RPMI 1640 medium as previously described ([Wright et al., 2001]), except that serum was replaced with Albumax II, [5% (^w/v)]. […] Twofold serial dilutions were made in 96-well microtiter plates in duplicate, and infected erythrocytes were added to give a final volume of 100 µL with 2.5% hematocrit and 1% parasitemia. Chloroquine diphosphate was used as a positive control, and uninfected and infected erythrocytes without compounds were included in each test. The plates were placed into a modular incubator; gassed with 93% nitrogen, 3% oxygen, and 4% carbon dioxide; and incubated at 37°C for 48 h. The parasite growth was assessed by measuring lactate dehydrogenase activity as described by [Makler et al. (1993)]. The reagent used contained the following in each mL: acetylpyridine adenine dinucleotide (APAD), 0.74 mg; lithium lactate, 19.2 mg; diaphorase, 0.1 mg; Triton X-100, 2 μL; nitroblue tetrazolium, 1 mg; and phenazine ethosulphate, 0.5 mg. Fifty microliter of this reagent was added to each well and mixed; plates were incubated for 15 min at 37°C. The optical densities were read at 550 nm using an Azure 96-well microplate reader (Azure Biosystems Inc.), and % inhibition of growth was calculated by comparison with the control values. IC50 values were determined using linear regression analysis (Microsoft Excel). A minimum of three separate determinations was carried out for each compound.

For `Cn1c2c3ccccc3nc-2cc2ccccc21` [Compound 1, cryptolepine], the IC50 (P. falciparum 3D7) is given as 460 ± 40 nM, the IC50 [1] is given as 1970 nM and the IC50 (P. knowlesi A1-H.1) is given as 1040 ± 23 nM. For the same compound, the IC50 [2] was 306 nM, the IC50 (A2780/cis cells) was 670 ± 390 nM and the IC50 (A2780/WT cells) was 440 ± 200 nM. The IC50 (A2780/ADR cells) was 1270 ± 600 nM, the “Suppression of parasitemia compared to untreated infected controls” value (P. berghei) was 80.5% and the IC50 [3] was 2400 ± 300 nM. For the same compound, the IC50 (P. falciparum K1) was 440 ± 220 nM.
